Assay results from a melting point compilation (Tetko et al.).

Compound | melting point [°C]
O=S(=O)(c1ccccc1)N1C2Cc3ccccc3C21 (configuration not stated) | 120 to 122
N=c1[nH]cc(S(=O)(=O)O)cc1[N+](=O)[O-] | 317 to 319
Nc1ncc(C(O)(C(F)(F)F)C(F)(F)F)s1 | 184 to 186
COc1ccccc1CC(=O)NN | 112 to 114
Cc1ccn(-c2cc(CO)ccn2)n1 | 92 to 94
CN1CC(=O)Nc2cc(C(=O)O)ccc21 | 322 to 324
Nc1ccc(F)c(S(=O)(=O)Nc2ccc(Br)cc2)c1 | 161 to 163
COc1cccc(C(=O)O)n1 | 133 to 135
O=C(O)c1cn(Cc2ccccc2)nn1 | 176 to 178
ClCc1cc(Br)c2c(c1)OCO2 | 100 to 102
CC(O)C1CCCCN1C(=O)OC(C)(C)C (configuration not stated) | 46 to 48
Cc1ccc(S(N)(=O)=O)cc1N(C)C | 126 to 128
O=C(CCCl)Nc1cccc([N+](=O)[O-])c1 | 75 to 77
O=C(O)c1cncc(OCC(F)F)c1 | 166 to 168
O=C(O)C1CC1c1ccc(Cl)c(Cl)c1 (configuration not stated) | 141 to 143
CCOC(=O)c1cc(F)c(F)cc1N | 82 to 84
COc1ccc(CCn2c(S)nc3ccccc3c2=O)cc1OC | 223 to 225
CN(C)C(=S)Oc1cccc(C=O)c1 | 65 to 67
CC(C)(C)Cc1nc(-c2cccc(C(=O)O)c2)no1 | 160 to 162
CC(C)CN1CCCC(C(=O)O)C1 (configuration not stated) | 108 to 110
COc1cc(CC#N)ccc1SC(F)F | 41 to 43
Cc1n[nH]c(-c2ccccc2C)n1 | 141 to 143
CS(=O)(=O)c1cccc(C(N)c2ccc(Cl)cc2)c1 (configuration not stated) | 94 to 96
O=C(O)CNC(=O)c1cccc(O)c1 | 174 to 176
COc1ccccc1NS(=O)(=O)c1cc(N)ccc1N1CCCCC1 | 169 to 171
O=C(Cc1ccccc1)NC1CCNCC1 | 139 to 141

Compound | melting point [°C]
CCCOc1cc2c(cc1C=O)OC(C)C2 (configuration not stated) | 45 to 47
O=C(O)c1nn(-c2ccc(Cl)cc2)c2c1CCCCC2 | 212 to 214
O=C1C(Br)CCCN1c1ccccc1 (configuration not stated) | 80 to 82
C=CCC(NC(=O)OCc1ccccc1)c1ccccc1 (configuration not stated) | 65 to 67
CCC(CC)n1nc(C(=O)O)cc1C | 110 to 112
Cc1nn(-c2ccc(F)cc2F)c(C)c1C(=O)O | 229 to 231
Cc1c(N)cccc1S(=O)(=O)NC(C)(C)C | 185 to 187
NS(=O)(=O)CC1CCCC1 | 42 to 44
CC(O)C(NC(=O)C1CC1)C(=O)O (configuration not stated) | 138 to 140
Nc1ccc(C(=O)N2CC(=O)Nc3ccccc32)cc1 | 286 to 288
Cc1nn(CCC(=O)O)c(C)c1[N+](=O)[O-] | 116 to 118
CC(C)(C)C(=O)NCCc1ccc(S(N)(=O)=O)s1 | 144 to 146
Cc1nnnn1-c1ccc(F)c(NC(=O)CCl)c1 | 179 to 181
CCC(C)Oc1cc(C(=O)O)ccn1 (configuration not stated) | 83 to 85
CC(C)c1noc(-c2ccc(Br)cc2)n1 | 29 to 31
O=C(O)c1cnn2cccnc12 | 203 to 205
CN1C(=CC=O)C(C)(C)c2ccccc21 | 93 to 95
Clc1cc2c(cc1Br)OCCN2 | 124 to 126
C=CCNc1nc2c(s1)CCCC2 | 77 to 79
NC(=S)Cc1ccc(Br)cc1 | 146 to 148
O=C(O)C1CC1c1ccncc1 (configuration not stated) | 228 to 230
CCCSc1ccc([N+](=O)[O-])c(N)c1 | 71 to 74
Cc1cc([N+](=O)[O-])ccc1C#N | 99 to 101
COC(=O)c1ccc(CCC(=O)O)cc1 | 113 to 115
O=C(CCl)N1CCCC1c1ccc2c(c1)OCCO2 (configuration not stated) | 168 to 169
Cc1cc(N)n(C)c(=O)c1 | 192 to 194

Compound | melting point [°C]
Cc1c(C(=O)O)cnn1-c1cccc(Br)c1 | 169 to 171
CC(=O)NCCc1ccc(C(=O)C(C)Cl)cc1 (configuration not stated) | 85 to 89
N#CC(N)c1ccc(OCc2ccccc2)cc1 (configuration not stated) | 111 to 113
CC(C)(C)c1cc(N)n(C(C)(C)C)n1 | 69 to 71
Nc1ccc(OC(F)F)c2ncccc12 | 119 to 121
O=C(O)CCNS(=O)(=O)c1c(Cl)cccc1Cl | 119 to 121
COc1cc(C2(C(=O)O)CCCC2)ccc1C | 163 to 165
O=c1[nH]c2cc(Cl)ccc2c(=O)o1 | 250 to 252
Sc1ncnc2ccsc12 | 271 to 273
CC(=O)c1cccc(S(=O)(=O)NCCC(=O)O)c1 | 106 to 110
CC(=O)CC(=O)Nc1ccccc1F | 75 to 77
Nc1onc(-c2ccc(Br)s2)c1-c1ccc(F)cc1 | 141 to 143
CC1CCN(S(=O)(=O)c2ccc(C(=O)O)s2)CC1 | 207 to 209
O=C(O)c1ncoc1-c1cccc(F)c1 | 169 to 171
O=C(c1cccnc1Cl)N1CCCCC1 | 67 to 69
Cc1cc(O)c([N+](=O)[O-])cc1S(=O)(=O)Cl | 63 to 65
CCOc1ccc(S(=O)(=O)Nc2ccc(C(=O)O)cc2)cc1 | 226 to 228
O=C(O)CNC(=O)COc1ccccc1 | 89 to 91
CCN(CC)S(=O)(=O)c1ccc(NCCO)c(N)c1 | 157 to 159
Cc1ccc(C(=O)c2ccc3[nH]c(=O)oc3c2)cc1 | 206 to 208
Nc1nnc(Cc2ccsc2)o1 | 151 to 153
N#Cc1nnc[nH]1 | 188 to 190
CC(C)c1ccsc1C(=O)O | 97 to 99
CC(NC(=O)CC1CCCC1)C(=O)O (configuration not stated) | 139 to 141
Cc1cc(Cl)c2c(c1)C(=O)C(=O)N2 | 173 to 175
CC(C)(C)c1nn(-c2ccccc2)cc1C(=O)O | 212 to 214

Further lines, results first:

melting point [°C] | Compound
99 to 101 | O=Cc1cc(-c2ccccc2)ccc1O
74 to 76 | CSc1ccc(N)cc1Cl
59 to 61 | Nc1cnn(-c2ccccc2F)c1
86 to 88 | COc1cc(C#N)ccc1OCC1CCCO1 (configuration not stated)
91 to 93 | ClCc1nnc(-c2ccccc2Cl)o1
138 to 140 | CN(C)c1ccc(N2C(=O)CSC2=S)cc1
99 to 100 | OCCOc1ccccc1O
59 to 61 | N#CCC(=O)c1ccc(F)c(Cl)c1
144 to 146 | CCC1CCc2[nH]c(=O)sc2C1 (configuration not stated)
68 to 70 | OC(CNCc1ccccc1)c1ccco1 (configuration not stated)
143 to 145 | CC(C(=O)O)n1nnc(-c2ccccc2)n1 (configuration not stated)
189 to 191 | O=C(O)CCC(=O)c1ccc2c(c1)-c1ccccc1C2
190 to 192 | O=C(O)c1oc2ccccc2c1COc1ccccc1Cl
219 to 221 | Cc1ccc(S(=O)(=O)Nc2ccc(C(=O)O)cc2)cc1C
49 to 51 | COc1cc(CCl)ccc1[N+](=O)[O-]
90 to 92 | Cc1cc(N)ccc1Oc1cccnc1
67 to 69 | C#CC1CCCN(C(=O)OC(C)(C)C)C1 (configuration not stated)
245 to 247 | NC(=O)Cn1ncc(Cl)c(Cl)c1=O
159 to 161 | Cc1nc(C(N)=O)c(N)n1C
86 to 88 | N#Cc1cccc(C(=O)NCc2ccco2)c1
84 to 86 | N#Cc1cccc(NCc2ccc(Cl)cc2)c1
124 to 126 | O=Cc1c(Cl)nc2ccccn12

melting point [°C] | Compound
179 to 181 | CC(C)(C)OC(=O)Nc1cc2ccccc2cc1C(=O)O
149 to 151 | N#CCC(=O)c1cccc([N+](=O)[O-])c1
151 to 153 | CC1(C(=O)O)CCCN(C(=O)c2ccccc2)C1 (configuration not stated)
199 to 201 | NC(=O)NCc1ccc([N+](=O)[O-])cc1
79 to 81 | CS(=O)(=O)CCOc1cccc(N)c1
126 to 128 | CCOc1cc(C#N)cc(Cl)c1O
92 to 94 | COc1cc(C(=O)O)ccc1OCCC(C)C
228 to 230 | O=C(O)c1ccccc1-c1cncnc1
79 to 81 | CN(C)c1nccc(Cl)n1
84 to 86 | c1cnc2c(c1)NCCCN2
107 to 109 | CC(C(=O)O)=C1CCCC1
109 to 111 | CCNC(=O)COc1ccc(C=O)cc1OC
99 to 101 | CC(C)(C)OC(=O)NC(CCS(C)(=O)=O)C(=O)O (configuration not stated)
116 to 118 | O=C(O)Cc1ccc(S(=O)(=O)N2CCOCC2)s1
85 to 89 | CC(C)COc1cccc(C(=O)O)c1
156 to 158 | CC(=O)Nc1ccc(SCC(=O)O)cc1
218 to 220 | Nc1nc(-c2c(F)cccc2F)n[nH]1
202 to 206 | Cc1ccc(-n2c(C)c(C)c3c(N)ncnc32)cc1
249 to 251 | O=C(O)c1cc(Cl)[nH]c(=O)c1
255 to 257 | CN1C(=O)C(C(N)=O)=C(N)C12CCCC2
41 to 43 | Clc1ccc(SC2CCNCC2)cc1
149 to 151 | NS(=O)(=O)c1ccc(C(=O)CBr)cc1

melting point [°C] | Compound
179 to 181 | CC1(CCc2ccccc2)NC(=O)NC1=O (configuration not stated)
99 to 101 | NC1CCN(c2cccc(Cl)c2)C1=O (configuration not stated)
79 to 81 | CCC(=CC(=O)O)c1cccc(Cl)c1
192 to 194 | Cc1cc(N)c(C(N)=O)cc1F
149 to 151 | Cn1cc(-c2nc3ccccn3c2N)cn1
91 to 93 | NNC(=O)Cc1ccncc1
81 to 83 | O=C(O)CSCC(=O)c1ccc(Cl)cc1
204 to 206 | Cc1cc(C(=O)O)c(C)n1-c1ccc2c(c1)OCCO2
80 to 82 | CC(N)(CO)C1CCCCC1 (configuration not stated)
135 to 137 | NS(=O)(=O)N1CCOc2ccccc21
84 to 86 | CC1(n2cc(C=O)cn2)CCS(=O)(=O)C1 (configuration not stated)
271 to 273 | O=C(O)c1c[nH]c2c(Br)ccc(Br)c2c1=O
284 to 286 | Cc1[nH]c2c(F)cccc2c(=O)c1C
130 to 132 | CCCCOc1ccc(C(=O)NC(C(=O)O)C(C)O)cc1 (configuration not stated)
129 to 131 | O=C(O)c1cc(S(=O)(=O)Cl)c(F)cc1F
78 to 80 | COCCNC(=O)CC#N
306 to 308 | O=C(O)CNS(=O)(=O)C1CCS(=O)(=O)C1 (configuration not stated)
244 to 246 | COc1ccccc1-n1cc(-c2ccc(Cl)cc2Cl)nc1S
84 to 86 | C=CCn1c(SCCCCCCCCCCCC)nc2scc(-c3ccccc3)c2c1=O
295 to 297 | Cc1ccc(-c2nn(-c3ccccc3)cc2/C=C(\C#N)C(=O)O)cc1
